Assays:
Experiment in all cases: relative viability (nuclei count vs DMSO), 5 days (fraction); higher = more cells survive
[1] = compound: Cc1ccc(C(=O)Nc2cccc(C(F)(F)F)c2)cc1Nc1cncc(C(N)=O)c1 [ALW-II-49-7] + Nc1ncn([C@H]2C[C@H](O)[C@@H](CO)O2)c(=O)n1 [Decitabine] (partner 2 µM)
How it was run: (§1)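 A single step with final 0.05% Triton X-100, 1% formaldehyde and 1 ug/ml Hoechst fixed the cells and stained nuclei 5 days after treatment. Lung cancer cell lines in 1536-well plates had been treated by pin tool the day after seeding with one drug alone or a fixed anchor-drug dose plus five library-drug doses (not always all listed) in √10 steps, and nuclei were counted on 4× images. Relative viability is the ratio of nuclei in treated wells to nuclei in vehicle wells, taken as the median of duplicate plates.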

[2] = compound: Cc1ccc(C(=O)Nc2cccc(C(F)(F)F)c2)cc1Nc1cncc(C(N)=O)c1 [ALW-II-49-7] + O=C(c1cc(Cc2n[nH]c(=O)c3ccccc23)ccc1F)N1CCN(C(=O)C2CC2)CC1 [Olaparib] (partner 8 µM)
How it was run: as §1

[3] = compound: Cc1nc(Nc2ncc(C(=O)Nc3c(C)cccc3Cl)s2)cc(N2CCN(CCO)CC2)n1 [Dasatinib] + Cc1nc(NC(=O)N2CCC[C@H]2C(N)=O)sc1-c1ccnc(C(C)(C)C(F)(F)F)c1 [Alpelisib] (partner 2 µM)
How it was run: as §1

[4] = compound: Cc1nc(Nc2ncc(C(=O)Nc3c(C)cccc3Cl)s2)cc(N2CCN(CCO)CC2)n1 [Dasatinib] + O=C(c1cc(Cc2n[nH]c(=O)c3ccccc23)ccc1F)N1CCN(C(=O)C2CC2)CC1 [Olaparib] (partner 8 µM)
How it was run: as §1

Row | Cell Line | relative viability ([1]; first compound 0.08 µM) | relative viability ([1]; first compound 0.253 µM) | relative viability ([1]; first compound 0.8 µM) | relative viability ([1]; first compound 2.53 µM) | relative viability ([1]; first compound 8 µM) | relative viability ([2]; first compound 0.08 µM) | relative viability ([2]; first compound 0.253 µM) | relative viability ([2]; first compound 0.8 µM) | relative viability ([2]; first compound 2.53 µM) | relative viability ([2]; first compound 8 µM) | relative viability ([3]; first compound 0.005 µM) | relative viability ([3]; first compound 0.01581 µM) | relative viability ([3]; first compound 0.05 µM) | relative viability ([3]; first compound 0.1581 µM) | relative viability ([3]; first compound 0.5 µM) | relative viability ([4]; first compound 0.005 µM) | relative viability ([4]; first compound 0.01581 µM) | relative viability ([4]; first compound 0.05 µM) | relative viability ([4]; first compound 0.1581 µM) | relative viability ([4]; first compound 0.5 µM)
1 | NCI-H1915 | 0.257 | 0.294 | 0.261 | 0.262 | 0.264 | 0.243 | 0.275 | 0.224 | 0.211 | 0.398 | 1.01 | 0.979 | 0.933 | 0.395 | 0.311 | 0.267 | 0.231 | 0.235 | 0.151 | 0.149
2 | NCI-H650 | 0.333 | 0.334 | 0.314 | 0.306 | 0.321 | 0.42 | 0.388 | 0.416 | 0.351 | 0.304 | 1.16 | 1.05 | 1.04 | 0.726 | 0.428 | 0.395 | 0.357 | 0.415 | 0.392 | 0.263
3 | NCI-H2009 | 0.326 | 0.446 | 0.368 | 0.438 | 0.467 | 0.601 | 0.654 | 0.665 | 0.422 | 0.428 | 1.15 | 0.956 | 1.04 | 0.88 | 0.204 | 0.715 | 0.731 | 0.772 | 0.556 | 0.127
4 | COR-L23 | 0.426 | 0.521 | 0.408 | 0.501 | 0.439 | 0.327 | 0.343 | 0.327 | 0.313 | 0.292 | 0.591 | 0.5 | 0.523 | 0.347 | 0.216 | 0.338 | 0.294 | 0.325 | 0.208 | 0.211
5 | NCI-H460 | 0.5 | 0.488 | 0.513 | 0.408 | 0.492 | 0.435 | 0.704 | 0.414 | 0.143 | 0.325 | 0.286 | 0.179 | 0.159 | 0.122 | 0.0551 | 0.362 | 0.383 | 0.38 | 0.247 | 0.199
6 | LCLC-103H | 0.757 | 0.781 | 0.726 | 0.727 | 0.684 | 0.724 | 0.79 | 0.771 | 0.714 | 0.762 | 0.978 | 1.06 | 0.818 | 0.647 | 0.328 | 0.74 | 0.716 | 0.718 | 0.508 | 0.356
7 | HCC-827 | 0.294 | 0.307 | 0.335 | 0.331 | 0.271 | 0.624 | 0.625 | 0.59 | 0.542 | 0.59 | 1.01 | 0.737 | 0.757 | 0.374 | 0.123 | 0.595 | 0.577 | 0.535 | 0.209 | 0.106
8 | NCI-H322M | 0.618 | 0.774 | 0.637 | 0.756 | 0.671 | 0.288 | 0.742 | 0.638 | 0.732 | 0.716 | 0.855 | 0.773 | 0.696 | 0.459 | 0.203 | 0.707 | 0.575 | 0.492 | 0.322 | 0.244

Source: the supplement of paper PMC10307832
